Earlier results as cited in patent US20130137781A1, “PHARMACEUTICAL PREPARATION FOR CONTROLLING WATER-SOLUBLE DRUG RELEASE” (priority 2010, published 2013).

Assays:
[1] = common logarithm of n-octanol/water partition coefficient

N[C@H](C(=O)O)[C@H](O)c1ccc(O)c(O)c1 [droxidopa]
thermal stability in solution state: thermally unstable in solution state | Log P [1]: −3.2

N[C@@H](Cc1ccccc1)C(=O)O [L-phenylalanine]
Log P [1]: −1.5

NS(=O)(=O)Cc1noc2ccccc12 [zonisamide]
Log P [1]: 0.2
